US20230107642A1 (Erasca, Inc., priority 2020, published 2023)

Biological target: T1, K-Ras G12C (Homo sapiens, UniProt P01116, G12C)
T1 construct: This protein contained 188 amino acids in total, including an N-terminal 6-Histidine tag; made in house; host or cells: E. coli BL21
Assay: CAF assay (% CAF; method in Example 7, not in this part)
Format: binding
Settings: 10 uM compound, 1 h incubation

Row | Compound | % CAF @ 10 uM, 1h [%]
1 | C=CC(=O)N1C[C@H](C)N(c2nc(=O)n3c4c(c(-c5cc(F)c(F)cc5F)c(Cl)cc24)SC[C@@H]3CN2CCC3(CC2)COC3)C[C@H]1C [Example 460] | 79.7
2 | C=CC(=O)N1C[C@H](C)N(c2nc(=O)n3c4c(c(-c5cc(Cl)c(F)cc5F)c(Cl)cc24)SC[C@@H]3CC2CCN(CC(F)F)CC2)C[C@H]1C [Example 461, (3S)-7-((2S,5R)-4-acryloyl-2,5-dimethylpiperazin-1-yl)-9-chloro-10-(5-chloro-2,4-difluorophenyl)-3-((1-(2,2-difluoroethyl)piperidin-4-yl)methyl)-2H-[1,4]thiazino[2,3,4-ij]quinazolin-5(3H)-one] | 79.5
3 | C=CC(=O)N1CCN(c2nc(=O)n3c4c(c(-c5ccc(F)cc5)c(Cl)cc24)SC[C@@H]3CN2CCC3(CC2)COC3)[C@@H](C)C1 [Example 462, (S)-3-(2-oxa-7-azaspiro[3.5]nonan-7-ylmethyl)-7-((S)-4-acryloyl-2-methylpiperazin-1-yl)-9-chloro-10-(4-fluorophenyl)-2H-[1,4]thiazino[2,3,4-ij]quinazolin-5(3H)-one] | 87.8
4 | C=CC(=O)N1CCN(c2nc(=O)n3c4c(c(-c5cc(F)c(F)cc5F)c(Cl)cc24)SC[C@@H]3CN2CCn3c(nnc3C(F)(F)F)C2)[C@@H](C)C1 [Example 463, (3S)-7-((S)-4-acryloyl-2-methylpiperazin-1-yl)-9-chloro-3-((3-(trifluoromethyl)-5,6-dihydro-[1,2,4]triazolo[4,3-a]pyrazin-7(8H)-yl)methyl)-10-(2,4,5-trifluorophenyl)-2H-[1,4]thiazino[2,3,4-ij]quinazolin-5(3H)-one] | 69
5 | C=CC(=O)N1CCN(c2nc(=O)n3c4c(c(-c5ccc(F)cc5F)c(C(F)(F)F)cc24)SC[C@@H](OC)C3)[C@@H](C)C1 [Example 464, (3S)-8-((S)-4-acryloyl-2-methylpiperazin-1-yl)-11-(2,4-difluorophenyl)-3-methoxy-10-(trifluoromethyl)-3,4-dihydro-2H,6H-[1,4]thiazepino[2,3,4-ij]quinazolin-6-one] | 95
6 | C=CC(=O)N1CCN(c2nc(=O)n3c4c(c(-c5ccc(F)cc5F)c(C(F)(F)F)cc24)SC[C@H](OC)C3)[C@@H](C)C1 [Example 465, (3R)-8-((S)-4-acryloyl-2-methylpiperazin-1-yl)-11-(2,4-difluorophenyl)-3-methoxy-10-(trifluoromethyl)-3,4-dihydro-2H,6H-[1,4]thiazepino[2,3,4-ij]quinazolin-6-one] | 96
7 | C=CC(=O)N1CCN(c2nc(=O)n3c4c(c(-c5cc(F)c(F)cc5F)c(Cl)cc24)SC[C@H]3COCOC)[C@@H](C)C1 [Example 466, (3R)-7-((S)-4-acryloyl-2-methylpiperazin-1-yl)-9-chloro-3-((methoxymethoxy)methyl)-10-(2,4,5-trifluorophenyl)-2H-[1,4]thiazino[2,3,4-ij]quinazolin-5(3H)-one] | 22.6
8 | C=CC(=O)N1C[C@H](C)N(c2nc(=O)n3c4c(c(-c5cc(Cl)c(F)cc5F)c(Cl)cc24)SC[C@@H]3CC2CCN(C3CC3)CC2)C[C@H]1C [Example 467, (3S)-7-((2S,5R)-4-acryloyl-2,5-dimethylpiperazin-1-yl)-9-chloro-10-(5-chloro-2,4-difluorophenyl)-3-((1-cyclopropylpiperidin-4-yl)methyl)-2H-[1,4]thiazino[2,3,4-ij]quinazolin-5(3H)-one] | 44.3
9 | C=CC(=O)N1C[C@H](C)N(c2nc(=O)n3c4c(c(-c5ccc(F)cc5F)c(Cl)cc24)SC[C@@H]3CN2CCn3c(nnc3C(F)(F)F)C2)C[C@H]1C [Example 468, (3S)-7-((2S,5R)-4-acryloyl-2,5-dimethylpiperazin-1-yl)-9-chloro-10-(2,4-difluorophenyl)-3-((3-(trifluoromethyl)-5,6-dihydro-[1,2,4]triazolo[4,3-a]pyrazin-7(8H)-yl)methyl)-2H-[1,4]thiazino[2,3,4-ij]quinazolin-5(3H)-one] | 68.6
10 | C=CC(=O)N1CCN(c2nc(=O)n3c4c(c(-c5cc(F)c(F)cc5F)c(Cl)cc24)SC[C@@H]3CN2CCC3(CC2)COC3)[C@@H](C)C1 [Example 469, (3S)-3-(2-oxa-7-azaspiro[3.5]nonan-7-ylmethyl)-7-((S)-4-acryloyl-2-methylpiperazin-1-yl)-9-chloro-10-(2,4,5-trifluorophenyl)-2H-[1,4]thiazino[2,3,4-ij]quinazolin-5(3H)-one] | 57.8
11 | C=CC(=O)N1CCN(c2nc(=O)n3c4c(c(-c5cc(Cl)c(F)cc5F)c(C(F)(F)F)cc24)SC[C@H]3COCOC)[C@@H](C)C1 [Example 470, (3R)-7-((S)-4-acryloyl-2-methylpiperazin-1-yl)-10-(5-chloro-2,4-difluorophenyl)-3-((methoxymethoxy)methyl)-9-(trifluoromethyl)-2H-[1,4]thiazino[2,3,4-ij]quinazolin-5(3H)-one] | 35
12 | C=CC(=O)N1CCN(c2nc(=O)n3c4c(c(-c5cc(F)c(F)cc5F)c(C(F)(F)F)cc24)SC[C@H]3COCOC)[C@@H](C)C1 [Example 471, (3R)-7-((S)-4-acryloyl-2-methylpiperazin-1-yl)-3-((methoxymethoxy)methyl)-9-(trifluoromethyl)-10-(2,4,5-trifluorophenyl)-2H-[1,4]thiazino[2,3,4-ij]quinazolin-5(3H)-one] | 23.9
13 | C=CC(=O)N1CCN(c2nc(=O)n3c4c(c(-c5ccc(F)cc5F)c(Cl)cc24)SC[C@@H]3CN2CCC3(CC2)COC3)[C@@H](C)C1 [Example 472, (3S)-3-(2-oxa-7-azaspiro[3.5]nonan-7-ylmethyl)-7-((S)-4-acryloyl-2-methylpiperazin-1-yl)-9-chloro-10-(2,4-difluorophenyl)-2H-[1,4]thiazino[2,3,4-ij]quinazolin-5(3H)-one] | 72.3
14 | C=CC(=O)N1C[C@H](C)N(c2nc(=O)n3c4c(c(-c5ccc(F)cc5)c(Cl)cc24)SC[C@@H]3CN2CCC3(CC2)COC3)C[C@H]1C [Example 473, (S)-3-(2-oxa-7-azaspiro[3.5]nonan-7-ylmethyl)-7-((2S,5R)-4-acryloyl-2,5-dimethylpiperazin-1-yl)-9-chloro-10-(4-fluorophenyl)-2H-[1,4]thiazino[2,3,4-ij]quinazolin-5(3H)-one] | 65.8
15 | C=CC(=O)N1CCN(c2nc(=O)n3c4c(c(-c5ccc(F)c6cccnc56)c(Cl)cc24)SC[C@@H]3COC)[C@@H](C)C1 [Example 474, (3S)-7-((S)-4-acryloyl-2-methylpiperazin-1-yl)-9-chloro-10-(5-fluoroquinolin-8-yl)-3-(methoxymethyl)-2,3-dihydro-5H-[1,4]thiazino[2,3,4-ij]quinazolin-5-one] | 73.3
16 | C=CC(=O)N1C[C@H](C)N(c2nc(=O)n3c4c(c(-c5cc(F)c(F)cc5F)c(Cl)cc24)SC[C@@H]3CC2CCN(C3CC3)CC2)C[C@H]1C [Example 475, (3S)-7-((2S,5R)-4-acryloyl-2,5-dimethylpiperazin-1-yl)-9-chloro-3-((1-cyclopropylpiperidin-4-yl)methyl)-10-(2,4,5-trifluorophenyl)-2H-[1,4]thiazino[2,3,4-ij]quinazolin-5(3H)-one] | 49.8
